# Experimental data published in patent US4068074A, “Cephalosporin derivatives having at the 3-position of the cephem ring a heterocyclic thiomethyl group with a carboxy or sulfo group and at the 7-position of the cephem ring an α-heterocylic acylaminophenyl-acetamide group” (priority 1974, dated 1978).
# Like-named read-outs stand apart in the source and are kept apart here.
# Columns and labels:
# Shigella sonnei II 37148 = assay: MIC against bacteria (Table I), strain (12); format: cell-based; conditions: II37148
# Excerpt: (§1) Now, for illustrating the excellent pharmacological effects of the compounds of this invention, the values of MIC (γ/ml.) of the compounds against various bacteria are shown in Table 1, in which the compounds of this invention used are shown by example numbers.
# [1] = tested on: Bacillus megatherium 10778; assay: MIC against bacteria (Table I), strain (13); format: cell-based; conditions: (13) Bacillus megatherium 10778; read-out: MIC
# Excerpt: as §1
# Salmonella enteritidis = assay: MIC against bacteria (Table I), strain (10); format: cell-based; conditions: Salmonella enterica
# Excerpt: as §1
# (10) Salmonella enteritidis
# [2] = tested on: Bacillus subtilis ATCC 6633; assay: MIC against bacteria (Table I), strain (14); format: cell-based; conditions: ATCC6633
# Excerpt: as §1
# (14) Bacillus subtilis ATCC 6633
# [3] = tested on: Staphylococcus aureus 209P; assay: MIC against bacteria (Table I), strain (16); format: cell-based
# Excerpt: as §1
# (16) Staphylococcus aureus 209P
# [4] = tested on: Staphylococcus Shimanishi; assay: MIC against bacteria (Table I), strain (17); format: cell-based
# Excerpt: as §1
# (17) Staphylococcus Shimanishi
# [5] = tested on: β-lactamase isolated from Pseudomonas aeruginosa 21; assay: Resistance to β-lactamase: amount of unaltered test sample (Table 3); format: biochemical; conditions: initial concentration 100γ/ml
# Excerpt: For example, the relation between the amount (γ/ml) of an unaltered test sample at an initial concentration of the sample 100γ/ml against β-lactamase isolated from Pseudomonas aeruginosa 21 at various dilutions of the enzyme were investigated.
# [6] = tested on: Pseudomonas aeruginosa ATCC 8689; assay: MIC against bacteria (Table I), strain (4); format: cell-based; conditions: ATCC8689
# Excerpt: as §1
# (4) Pseudomonas aeruginosa ATCC 8689
# Proteus vulgaris OXK US = assay: MIC against bacteria (Table I), strain (1); format: cell-based
# Excerpt: as §1
# (1) Proteus vulgaris OXK US
# [7] = tested on: Klebsiella pneumoniae ATCC 10031; assay: MIC against bacteria (Table I), strain (8); format: cell-based; conditions: ATCC10031
# Excerpt: as §1
# (8) Klebsiella pneumoniae ATCC 10031
# Staphylococcus Onuma = assay: MIC against bacteria (Table I), strain (18); format: cell-based
# Excerpt: as §1
# (18) Staphylococcus Onuma
# [8] = tested on: Psuedomonas ovalis IMA 1002; assay: MIC against bacteria (Table I), strain (6); format: cell-based
# Excerpt: as §1
# (6) Psuedomonas ovalis IMA 1002
# Salmonella typhi H901 W = assay: MIC against bacteria (Table I), strain (9); format: cell-based; conditions: Salmonella enterica, TYPHI
# Excerpt: as §1
# (9) Salmonella typhi H901 W
# [9] = tested on: Shigella flexneri 2a 1675; assay: MIC against bacteria (Table I), strain (11); format: cell-based; conditions: 2A1675
# Excerpt: as §1
# [10] = tested on: Proteus mirabilis IXM OM-19; assay: MIC against bacteria (Table I), strain (3); format: cell-based; conditions: IXMOM19; (3) Proteus mirabilis IXM OM-19; read-out: MIC
# Excerpt: as §1
# (3) Proteus mirabilis IXM OM-19
# [11] = tested on: Pseudomonas aeruginosa 99 (Gentamycin resistant); assay: MIC against bacteria (Table I), strain (5); format: cell-based
# Excerpt: as §1
# (5) Pseudomonas aeruginosa 99 (Gentamycin resistant)
# [12] = tested on: Escherichia coli kauffmann 0-1; assay: MIC against bacteria (Table I), strain (7); format: cell-based; conditions: Escherichia coli
# Excerpt: as §1
# (7) Escherichia coli kauffmann 0-1
# Proteus vulgaris 0X 19US = assay: MIC against bacteria (Table I), strain (2); format: cell-based; conditions: 0X19US
# Excerpt: as §1
# (2) Proteus vulgaris 0X 19US
# [13] = tested on: Micrococcus flavus ATCC 10240; assay: MIC against bacteria (Table I), strain (15); format: cell-based; conditions: ATCC10240
# Excerpt: as §1
# (15) Micrococcus flavus ATCC 10240
# [14] = (12) Shigella sonnei II 37148, read-out: MIC
# [15] = (14) Bacillus subtilis ATCC 6633, read-out: MIC
# [16] = (16) Staphylococcus aureus 209P, read-out: MIC
# [17] = (17) Staphylococcus Shimanishi, read-out: MIC
# [18] = (4) Pseudomonas aeruginosa ATCC 8689, read-out: MIC
# [19] = (6) Psuedomonas ovalis IMA 1002, read-out: MIC
# [20] = (11) Shigella flexneri 2a 1675, read-out: MIC
# [21] = (5) Pseudomonas aeruginosa 99 (Gentamycin resistant), read-out: MIC
# [22] = (2) Proteus vulgaris 0X 19US, read-out: MIC
# [23] = (15) Micrococcus flavus ATCC 10240, read-out: MIC
# [24] = (10) Salmonella enteritidis, read-out: MIC
# [25] = (1) Proteus vulgaris OXK US, read-out: MIC
# [26] = (8) Klebsiella pneumoniae ATCC 10031, read-out: MIC
# [27] = (18) Staphylococcus Onuma, read-out: MIC
Compound,MIC (Shigella sonnei II 37148; [14]),MIC [1],"MIC [2, 15]","MIC [3, 16]","MIC [4, 17]","MIC [6, 18]","MIC [8, 19]",MIC (Salmonella typhi H901 W),"MIC [9, 20]",MIC [10],"MIC [11, 21]",MIC [12],MIC (Proteus vulgaris 0X 19US; [22]),"MIC [13, 23]",MIC (Salmonella enteritidis; [24]),"MIC ([3]; Staphylococcus aureus, 209P)",MIC (Proteus vulgaris OXK US; [25]),"MIC [7, 26]",MIC (Staphylococcus Onuma; [27]),MIC ([13]; Micrococcus flavus),also measured
"Cc1nnc(SCC2=C(C(=O)O)N3C(=O)[C@@H](NC(=O)Cn4cnnn4)[C@H]3SC2)s1 [Cephazolin, reference compound]",1.56 µg/mL,0.19 µg/mL,0.19 µg/mL,0.19 µg/mL,0.78 µg/mL,> 100 µg/mL,> 100 µg/mL,1.56 µg/mL,1.56 µg/mL,6.25 µg/mL,> 100 µg/mL,1.56 µg/mL,25 µg/mL,0.19 µg/mL,–,–,–,–,–,–,MIC (Salmonella enteritidis; ENTERITIDIS): 1.56 µg/mL; Amount of unaltered test sample ([5]; β-lactamase dilution ×2): 0 µg/mL; Amount of unaltered test sample ([5]; β-lactamase dilution ×4): 0 µg/mL; Amount of unaltered test sample ([5]; β-lactamase dilution ×8): 0 µg/mL; Amount of unaltered test sample ([5]; β-lactamase dilution ×16): 0 µg/mL; Amount of unaltered test sample ([5]; β-lactamase dilution ×32): 0 µg/mL; Amount of unaltered test sample ([5]; β-lactamase dilution ×64): 9.2 µg/mL; Amount of unaltered test sample ([5]; β-lactamase dilution ×128): 21.5 µg/mL; Amount of unaltered test sample ([5]; β-lactamase dilution ×256): 84.6 µg/mL; Amount of unaltered test sample ([5]; β-lactamase dilution ×512): 96.7 µg/mL; Amount of unaltered test sample ([5]; β-lactamase dilution ×1024): 100 µg/mL; MIC (Proteus vulgaris OXK US; Proteus vulgaris): 3.13 µg/mL; MIC ([7]; Klebsiella pneumoniae): 1.56 µg/mL; MIC (Staphylococcus Onuma; Staphylococcus): 1.56 µg/mL
"O=C(O)CSc1nnc(SCC2=C(C(=O)O)N3C(=O)[C@@H](NC(=O)[C@H](NC(=O)c4cnccc4O)c4ccc(O)cc4)[C@H]3SC2)s1 [Example 33, 7-[D-α-(4-hydroxynicotinoylamido)-α-p-hydroxyphenylacetamido]-3-[5-carboxymethylthio-1,3,4-Δ^3-thiadiazol-2-yl]thiomethyl-cephem-4-carboxylic acid]",–,0.78 µg/mL,0.78 µg/mL,–,12.5 µg/mL,25 µg/mL,12.5 µg/mL,3.13 µg/mL,–,0.39 µg/mL,25 µg/mL,3.13 µg/mL,–,–,1.56 µg/mL,3.13 µg/mL,< 0.09 µg/mL,25 µg/mL,25 µg/mL,3.13 µg/mL,MIC (Shigella sonnei II 37148; Shigella sonnei): 3.13 µg/mL; MIC ([9]; Shigella flexneri): 3.13 µg/mL; MIC (Proteus vulgaris 0X 19US; Proteus vulgaris): 12.5 µg/mL
"O=C(O)CCSc1nnc(SCC2=C(C(=O)O)N3C(=O)[C@@H](NC(=O)[C@H](NC(=O)c4cnccc4O)c4ccccc4)[C@H]3SC2)s1 [Example 5, 7-[D-α-(4-hydroxynicotinoylamido)-α-phenylacetamido]-3-(5-carboxyethylthio-1,3,4-thiadiazol-2-yl)-thiomethyl-Δ^3-cephem-4-carboxylic acid]",6.25 µg/mL,0.78 µg/mL,0.39 µg/mL,–,–,12.5 µg/mL,–,1.56 µg/mL,1.56 µg/mL,0.78 µg/mL,–,6.25 µg/mL,0.19 µg/mL,3.13 µg/mL,0.39 µg/mL,1.56 µg/mL,< 0.09 µg/mL,–,–,–,MIC ([4]; Staphylococcus): 6.25 µg/mL; MIC ([7]; Klebsiella pneumoniae): 6.25 µg/mL; MIC (Staphylococcus Onuma; Staphylococcus): 6.25 µg/mL; MIC [8]: 6.25 µg/mL; MIC ([11]; Pseudomonas aeruginosa): 6.25 µg/mL
"Cc1nc(SCC2=C(C(=O)O)N3C(=O)[C@@H](NC(=O)[C@H](NC(=O)c4cnccc4O)c4ccccc4)[C@H]3SC2)sc1C(=O)O [Example 14, 7-[D-α-(4-hydroxynicotinoylamido)-α-phenylacetamido]-3-(4-methyl-5-carboxythiazol-2-yl)thiomethyl-Δ^3-cephem-4-carboxylic acid]",3.13 µg/mL,0.39 µg/mL,0.78 µg/mL,–,12.5 µg/mL,25 µg/mL,25 µg/mL,1.56 µg/mL,1.56 µg/mL,0.19 µg/mL,12.5 µg/mL,3.13 µg/mL,0.78 µg/mL,6.25 µg/mL,0.78 µg/mL,1.56 µg/mL,0.19 µg/mL,6.25 µg/mL,12.5 µg/mL,–,–
"CC(Sc1nnc(SCC2=C(C(=O)O)N3C(=O)[C@@H](NC(=O)[C@H](NC(=O)c4cnccc4O)c4ccccc4)[C@H]3SC2)s1)C(=O)O (stereo partly drawn) [Example 21, 7-[D-α-(4-hydroxynicotinoylamido)-α-phenylacetamido]-3-[5-(1-carboxyethylthio)-1,3,4-thiadiazol-2-yl]thiomethyl-Δ^3-cephem-4-carboxylic acid]",3.13 µg/mL,0.39 µg/mL,0.39 µg/mL,–,6.25 µg/mL,12.5 µg/mL,12.5 µg/mL,1.56 µg/mL,1.56 µg/mL,0.39 µg/mL,12.5 µg/mL,3.13 µg/mL,0.19 µg/mL,–,–,1.56 µg/mL,< 0.09 µg/mL,6.25 µg/mL,6.25 µg/mL,3.13 µg/mL,MIC (Salmonella enteritidis; ENTERITIDIS): 0.39 µg/mL
"O=C(O)Cn1nnnc1SCC1=C(C(=O)O)N2C(=O)[C@@H](NC(=O)[C@H](NC(=O)c3cnccc3O)c3ccccc3)[C@H]2SC1 [Example 15, 7-[D-α-(4-hydroxynicotinoylamido)-α-phenylacetamido]-3-(1-carboxymethyltetrazol-5-yl)-thiomethyl-Δ^3-cephem-4-carboxylic acid]",3.13 µg/mL,0.39 µg/mL,0.39 µg/mL,–,12.5 µg/mL,25 µg/mL,12.5 µg/mL,3.13 µg/mL,3.13 µg/mL,< 0.09 µg/mL,6.25 µg/mL,6.25 µg/mL,0.39 µg/mL,25 µg/mL,0.78 µg/mL,3.13 µg/mL,0.19 µg/mL,6.25 µg/mL,25 µg/mL,–,–
"O=C(O)C1=C(CSc2nnc(C(=O)O)s2)CS[C@@H]2[C@H](NC(=O)[C@H](NC(=O)c3cnccc3O)c3ccccc3)C(=O)N12 [Example 11, 7-[D-α-(4-hydroxynicoytinoylamido)-α-phenylacetamido]-3-(5-carboxy-1,3,4-thiadiazol-2-yl)thiomethyl-Δ^3-cephem-4-carboxylic acid]",25 µg/mL,0.39 µg/mL,0.39 µg/mL,0.39 µg/mL,3.13 µg/mL,–,12.5 µg/mL,0.78 µg/mL,6.25 µg/mL,0.56 µg/mL,12.5 µg/mL,25 µg/mL,–,–,0.39 µg/mL,–,0.39 µg/mL,3.13 µg/mL,–,6.25 µg/mL,MIC ([6]; Pseudomonas aeruginosa): 25 µg/mL; MIC (Staphylococcus Onuma; Staphylococcus): 6.25 µg/mL; MIC (Proteus vulgaris 0X 19US; Proteus vulgaris): 6.25 µg/mL
"CSc1ccc2c(=O)c(C(=O)N[C@@H](C(=O)N[C@@H]3C(=O)N4C(C(=O)O)=C(CSc5nnc(SCC(=O)O)s5)CS[C@H]34)c3ccccc3)c[nH]c2c1 [Example 12, 7-[D-α-(7-methylthio-4-quinolon-3-ylcarboxamido)-α-phenylacetamido]-3-(5-carboxymethylthio-1,3,4-thiadiazol-2yl)thiomethyl-Δ^3-cephem-4-carboxylic acid]",3.13 µg/mL,0.39 µg/mL,–,0.78 µg/mL,–,25 µg/mL,25 µg/mL,0.19 µg/mL,1.56 µg/mL,0.39 µg/mL,12.5 µg/mL,6.25 µg/mL,0.19 µg/mL,–,0.19 µg/mL,–,0.19 µg/mL,0.39 µg/mL,6.25 µg/mL,3.13 µg/mL,MIC ([2]; Bacillus subtilis): 3.13 µg/mL; MIC ([4]; Staphylococcus): 3.13 µg/mL
